Experimental data published in article PMC6278385, “Preclinical Pharmacokinetics of C118P, a Novel Prodrug of Microtubules Inhibitor and Its Metabolite C118 in Mice, Rats, and Dogs” (Molecules, 2018).
Where two headings read alike, the source gives them in different places.

Columns and labels:
[1] = Metabolic stability in liver microsomes; type: in vitro ADME, monkey
Experimental: The in vitro metabolic stability of C118P and C118 were estimated in mice, rat, dog, monkey, and human liver microsomes (Research Institute for Liver Diseases Co. Ltd (Shanghai, China)). The incubation mixture contains C118P or C118, NADP (1.0 mM), G-6-P (10 mM), PDH (2 units/mL), MgCl2 (10 mM), and liver microsomes (mice, rats, dogs, monkeys, or humans, 1.0 mg protein/mL) in phosphate buffer. A total of 200 μL of the mixture was removed and quenched with 600 μL acetonitrile in an ice bath at 0, 15, 30, 60, 120, and 240 min after the addition of NADPH.
CLint, in vitro (the in vitro intrinsic clearance, Equation (1)) was calculated from the t1/2 of C118 disappearance, where Cprotein is the protein concentration during the incubation, and t1/2 was determined by the slope (k) of the log-linear regression analysis of the concentration versus time profiles; thus, t1/2 = ln2/k. […] The in vivo hepatic clearance (CLH, Equation (3)) was then calculated by using CLint and hepatic blood flow, Q ([…] mL·min^−1·kg^−1 in rats, dogs, monkey, and humans, respectively), in the well-stirred liver model disregarding all binding. The hepatic extraction ratio was calculated as CLH divided by Q. CLint, in vitro = (0.693/t1/2) × (1/Cprotein)(1) CLint = CLint, in vitro × (mg protein/g liver weight) × (gliver weight/kg body weight)(2) CLH = (Q × CLint)/(Q + CLint)(3)

[2] = PK in tumor-bearing nude mice after i.v. C118P; type: in vivo, nude mice (BALB/cA) implanted with NCI-H460 tumor; details: for concentration at 2 min: read-out: C2min
Experimental: The nude mice (BALB/cA) implanted with NCI-H460 tumor were provided by Shanghai Institute of Materia Medica. A total of 36 mice were divided into 9 groups with four animals in each group. After fasting overnight with free access to water, the mice were treated with 75 mg/kg C118P by i.v. The blood samples were collected at 2, 10, 20, 40 min, 1, 2, 4, 8, 12 h after treatment and the mice were anaesthetized and decapitated to obtain the blood and tumor tissue. Blood, brain, muscle, ovary, and lung from mice in the PK study were collected at 10 min, 1, 4, and 12 h. Tissues were cleaned by absorbent filter paper to remove the blood. Bloods were centrifuged at 10,000× g for 5 min. Each tissue (0.2 g) was homogenized with 2 mL water. The plasma samples and the homogenates were then processed and determined by the method described above. The concentration was determined by the calibration curve and the actual concentration was corrected by multiplying by 10 according to the dilution times.
(§1) The area under the plasma-concentration-versus-time curve from 0 to infinite (AUC0-inf), the elimination half-life (t1/2), the systemic plasma clearance (CL) and the volume of distribution (V) were calculated by non-compartmental analysis with WinNonlin software v6.3 (Pharsight Corporation, St. Louis, MO 63144, USA) from the plasma concentration data of C118P and C118, respectively. The instantaneous concentrations after intravenous to rats (C30s) or dogs (C2min) were obtained directly from the observed data.

[3] = Stability in plasma with EDTA as anticoagulant; type: in vitro ADME
[4] = PK in rats after i.v. C118P; type: in vivo, SD rats; details: plasma; for concentration at 30 s / AUC(0-inf) / half-life / clearance: both sexes, rat; for concentration at 30 s: read-out: C2min (C30s for Rat); for AUC(0-inf) / half-life / clearance: iv
Experimental: The SD rats were supplied by the medical animal experiment center of Chinese People’s Liberation Army Nanjing military region. Twenty-four rats (210–300 g) with half males and half females were divided randomly into four groups. C118P was dissolved in saline to achieve different concentrations for intravenous administration. After fasting overnight, the rats were administered with a single intravenous dose of 5, 10, 20, or 50 mg/kg C118P. Blood samples (approximately 200 μL) were collected in EDTA-coated tubes pre-dose (0), and 30s, 2, 5, 10, 20, 40 min, 1, 2, 4, 8, 12 and 24 h post dose. Plasma was prepared by centrifugation at 8000 rpm for 5 min, and the plasma samples were then prepared and determined by the method described above.
as §1

[5] = Excretion in rats (bile, urine, feces); type: in vivo; details: i.v. C118P 20 mg/kg
Experimental: Twelve rats (weight 220–260 g) with half males and half females were anesthetized with diethyl ether after fasted overnight. A median laparotomy was performed and the bile duct was cannulated with a catheter. After intravenous administration (20 mg/kg) of C118P solution, bile samples were collected at 1, 2, 4, 6, 10 and 24 h in EDTA-coated tubes. The accurate volume of bile samples were measured by weight loss method. A volume of 50 μL of bile was prepared by protein precipitation and determined by the method described above. The total cumulative molar excretion percentage of C118P and C118 in bile of ten rats was calculated according to the total molar amount of C118P and C118 and the dose.
Six rats (weight 200–230 g) with half males and half females were fasted overnight. After intravenous administration (20 mg/kg), urine and feces samples were collected at 12, 24, 36, 48, 60 and 72 h. The feces were collected in 200 mL of EDTA solution (100 mg/mL) and grinded into a suspension. The accurately volume amount of urine and feces samples were measured by weight loss method. A volume of 50 μL of urine or feces suspension was prepared by protein precipitation and determined by the method described above. The cumulative molar excretion percentage of C118P and C118 in urine or feces was calculated according to the concentrations of C118P and C118, the volume of each time period.

[6] = nude mice, tumor, i.v. C118P 75 mg/kg, n = 4
[7] = SD, rats, i.v. C118P 5 mg/kg, n = 6
[8] = SD, rats, i.v. C118P 20 mg/kg, n = 6
[9] = SD, rats, i.v. C118P 50 mg/kg, n = 6
[10] = Sprague-Dawley, rats, i.v. C118P 10 mg/kg, n = 6
[11] = SD, in vivo, rats, i.v. C118P 5 mg/kg, n = 6
[12] = SD, in vivo, rats, i.v. C118P 20 mg/kg, n = 6
[13] = SD, in vivo, rats, i.v. C118P 50 mg/kg, n = 6
[14] = Sprague-Dawley, in vivo, rats, i.v. C118P 10 mg/kg, n = 6

In the case of `COc1cc(OC)cc(-c2nc[nH]c2-c2ccc(OC)c(O)c2)c1` [C118], the “CLint, in vitro” value ([1]; monkey liver microsomes) is reported as 318.6 μL·min^−1·mg^−1 Protein, the half-life ([1]; monkey liver microsomes, 1.0 mg protein/mL, C118 disappearance) is reported as 2.2 min and the CLint ([1]; monkey, scaled from CLint, in vitro) is reported as 252.8 mL/min/kg. For the same molecule, the “Extrapolated CLH” value ([1]; monkey, well-stirred liver model) was 37.5 mL/min/kg, the concentration at 2 min ([2]; BALB/cA nude, mouse, intravenous, nude mice, plasma, i.v. C118P 75 mg/kg, n = 4) was 42.5 µg/mL and the concentration at 2 min ([2]; BALB/cA nude, mouse, intravenous, nude mice, tumor, i.v. C118P 75 mg/kg, n = 4) was 13800 ng/g. For the same molecule, the half-life ([2]; BALB/cA nude, mouse, iv, nude mice, plasma, i.v. C118P 75 mg/kg, n = 4) was 58.2 ± 6 min, the AUC(0-inf) ([2]; BALB/cA nude, mouse, iv, nude mice, plasma, i.v. C118P 75 mg/kg, n = 4, read-out: AUC0-inf) was 13400 ng·h/mL and the half-life ([2]; BALB/cA nude, mouse, iv, nude mice, tumor, i.v. C118P 75 mg/kg, n = 4) was 222 ± 88.8 min. The clearance ([2]; BALB/cA nude, mouse, plasma, iv, 75 mg/kg, mice, in vivo, compared with extrapolated CLH, read-out: Observed CL) was 88.8 mL/min/kg, the AUC(0-inf) [2, 6] was 73,027.8 ± 24,951.2 ng × h/g and the stability in plasma [3] was “stable”. It also gave a concentration at 30 s ([4]; SD, intravenous, rats, i.v. C118P 5 mg/kg, n = 6) of 1.58 ± 0.318 µg/mL, a concentration at 30 s ([4]; SD, intravenous, rats, i.v. C118P 20 mg/kg, n = 6) of 7.72 ± 2.01 µg/mL and a concentration at 30 s ([4]; SD, intravenous, rats, i.v. C118P 50 mg/kg, n = 6) of 20.6 µg/mL. It also gave an AUC(0-inf) [4, 7] of 741 ± 63.2 ng·h/mL, a half-life [4, 7] of 31.2 ± 6 min and an AUC(0-inf) [4, 8] of 3750 ± 592 ng·h/mL. It also gave a half-life [4, 8] of 36 ± 3.6 min, an AUC(0-inf) [4, 9] of 9720 ± 1300 ng·h/mL and a half-life [4, 9] of 149 ± 75.6 min. For the same molecule, the clearance ([4]; Sprague-Dawley, in vivo, compared with extrapolated CLH, read-out: Observed CL) was 62.9 mL/min/kg, the concentration at 30 s ([4]; Sprague-Dawley, intravenous, rats, i.v. C118P 10 mg/kg, n = 6) was 3.72 ± 0.974 µg/mL and the AUC(0-inf) [4, 10] was 1600 ± 193 ng·h/mL. The half-life [4, 10] was 33 ± 7.8 min.
With `COc1cc(OC)cc(-c2nc[nH]c2-c2ccc(OC)c(OP(=O)([O-])[O-])c2)c1.[Na+].[Na+]` [C118P] the “sulfuric acid conjugation in urine” value [5] was “no sulfuric acid conjugation was found”, the “stability in liver microsomes” value ([1]; monkey liver microsomes (Figure S1)) was “quite stable” and the half-life ([2]; BALB/cA nude, mouse, in vivo, iv, 75 mg/kg, nude mice, plasma, i.v. C118P 75 mg/kg, n = 4) was 118 ± 64.2 min. It also gave a half-life ([2]; BALB/cA nude, mouse, in vivo, iv, 75 mg/kg, nude mice, tumor, i.v. C118P 75 mg/kg, n = 4) of 69.6 ± 45.6 min, an AUC(0-inf) ([2]; BALB/cA nude, mouse, in vivo, iv, nude mice, plasma, i.v. C118P 75 mg/kg, n = 4, read-out: AUC0-inf) of 13500 ng·h/mL and a clearance ([2]; BALB/cA nude, mouse, in vivo, iv, nude mice, plasma, i.v. C118P 75 mg/kg, n = 4, read-out: CL (converted)) of 96.9 mL/min/kg. The concentration at 2 min ([2]; BALB/cA nude, mouse, in vivo, nude mice, plasma, i.v. C118P 75 mg/kg, n = 4) was 106 µg/mL, the concentration at 2 min ([2]; BALB/cA nude, mouse, in vivo, nude mice, tumor, i.v. C118P 75 mg/kg, n = 4) was 292 ± 80.2 ng/g and the V ([2]; nude mice, plasma, i.v. C118P 75 mg/kg, n = 4) was 15,404.8 ± 7499.6 mL/kg. The AUC(0-inf) [2, 6] was 217.7 ± 9.3 ng·h/g, the stability in plasma [3] was “stable” and the AUC(0-inf) [4, 11] was 5740 ± 766 ng·h/mL. It also gave a half-life [4, 11] of 14.4 ± 3 min, a clearance ([4]; SD, in vivo, rats, i.v. C118P 5 mg/kg, n = 6, read-out: CL (converted)) of 14.7 mL/min/kg and a clearance ([4]; SD, in vivo, rats, i.v. C118P 10 mg/kg, n = 6, read-out: CL (converted)) of 16.4 mL/min/kg. For the same molecule, the AUC(0-inf) [4, 12] was 18700 ng·h/mL, the half-life [4, 12] was 22.8 ± 6 min and the clearance ([4]; SD, in vivo, rats, i.v. C118P 20 mg/kg, n = 6, read-out: CL (converted)) was 18.5 mL/min/kg. The AUC(0-inf) [4, 13] was 38900 ng·h/mL, the half-life [4, 13] was 48 ± 34.2 min and the clearance ([4]; SD, in vivo, rats, i.v. C118P 50 mg/kg, n = 6, read-out: CL (converted)) was 22.3 mL/min/kg. For the same molecule, the concentration at 30 s [4, 11] was 75.6 µg/mL, the concentration at 30 s [4, 12] was 219 µg/mL and the concentration at 30 s [4, 13] was 373 µg/mL. The AUC(0-inf) [4, 14] was 10400 ng·h/mL, the half-life [4, 14] was 12.6 ± 3 min and the concentration at 30 s [4, 14] was 134 µg/mL. It also gave a V ([4]; rats, i.v. C118P 5 mg/kg, n = 6) of 0.3025 ± 0.0611 L/kg, a V ([4]; rats, i.v. C118P 10 mg/kg, n = 6) of 0.2994 ± 0.0676 L/kg and a V ([4]; rats, i.v. C118P 20 mg/kg, n = 6) of 0.5826 ± 0.1142 L/kg. It also gave a V ([4]; rats, i.v. C118P 50 mg/kg, n = 6) of 1.5022 ± 1.0658 L/kg.
